Read-outs that look alike come from different tables or passages of the source.
Columns and labels:
[1] = tested on: Plasmodium berghei (Pb-Luc) exoerythrocytic-stage parasites; details: for IC50: read-out: PbLuc_IC50
[2] = tested on: HepG2-A16-CD81EGFP cells; details: for IC50: read-out: Tox_IC50, HepG2 cytotoxicity
[3] = first series of dose-response columns, fraction of control
[4] = first series, fraction of control
[5] = sheet 2nd round, Broad compounds, dose response
[6] = second series of dose-response columns, fraction of control
[7] = second series, fraction of control
[8] = sheet 2nd round, maximal inhibition in dose response
[9] = 2nd round, maximal inhibition in dose series
[10] = first series of columns, fraction of control
[11] = second series of columns (replicate), fraction of control

C[C@@H]1CCCCO[C@@H](CN(C)S(=O)(=O)c2ccc(F)cc2)[C@H](C)CN([C@H](C)CO)C(=O)c2cc(N(C)C)ccc2O1 [BRD-K17570530-001-01-5]
normalised signal at concentration 0.000508053 (first series) ([1]; concentration 0.000508053, first series): 0.9121 | normalised signal at concentration 0.000508053 (second series) ([1]; concentration 0.000508053, second series): 0.9459 | normalised signal at concentration 0.00152416 (first series) ([1]; concentration 0.00152416, first series): 0.7511 | normalised signal at concentration 0.00152416 (second series) ([1]; concentration 0.00152416, second series): 0.8649 | normalised signal at concentration 0.00457247 (first series) ([1]; concentration 0.00457247, first series): 0.9449 | normalised signal at concentration 0.00457247 (second series) ([1]; concentration 0.00457247, second series): 0.9685 | normalised signal at concentration 0.0137174 (first series) ([1]; concentration 0.0137174, first series): 0.964 | normalised signal at concentration 0.0137174 (second series) ([1]; concentration 0.0137174, second series): 0.9508 | normalised signal at concentration 0.0411523 (first series) ([1]; concentration 0.0411523, first series): 1.052 | normalised signal at concentration 0.0411523 (second series) ([1]; concentration 0.0411523, second series): 0.9313 | normalised signal at concentration 0.123457 (first series) ([1]; concentration 0.123457, first series): 1.16 | normalised signal at concentration 0.123457 (second series) ([1]; concentration 0.123457, second series): 0.9927 | normalised signal at concentration 0.37037 (first series) ([1]; concentration 0.37037, first series): 0.8577 | normalised signal at concentration 0.37037 (second series) ([1]; concentration 0.37037, second series): 0.9491 | normalised signal at concentration 1.11111 (first series) ([1]; concentration 1.11111, first series): 0.9131 | normalised signal at concentration 1.11111 (second series) ([1]; concentration 1.11111, second series): 0.9395 | normalised signal at concentration 3.33333 (first series) ([1]; concentration 3.33333, first series): 0.7629 | normalised signal at concentration 3.33333 (second series) ([1]; concentration 3.33333, second series): 0.867 | normalised signal at concentration 10 (first series) ([1]; concentration 10, first series of dose columns): 0.8313 | normalised signal at concentration 10 (second series) ([1]; concentration 10, second series of dose columns): 0.7644 | IC50 ([1]; sheet "2nd round", Broad compounds, dose response top concentration 10): > 10 µM | PbLuc_max_inhibition (%) ([1]; sheet "2nd round"): 25% | IC50 ([2]; sheet "2nd round"): > 10 µM | Tox_max_inhibition (%) ([2]; sheet "2nd round"): 4.52%

C[C@H]1CCCCO[C@H](CN(C)S(=O)(=O)c2ccc(F)cc2)[C@@H](C)CN([C@@H](C)CO)C(=O)c2cc(N(C)C)ccc2O1 [BRD-K38571893-001-01-9]
normalized signal at concentration 10 [1, 3]: 0.89 | normalized signal at concentration 0.000508053 [1, 4]: 0.97 | normalized signal at concentration 0.00152416 [1, 4]: 0.98 | normalized signal at concentration 0.00457247 [1, 4]: 0.90 | normalized signal at concentration 0.0137174 [1, 4]: 0.78 | normalized signal at concentration 0.0411523 [1, 4]: 1.07 | normalized signal at concentration 0.123457 [1, 4]: 1.18 | normalized signal at concentration 0.37037 [1, 4]: 0.95 | normalized signal at concentration 1.11111 [1, 4]: 0.97 | normalized signal at concentration 3.33333 [1, 4]: 0.87 | IC50 [1, 5]: > 10 µM | normalized signal at concentration 10 [1, 6]: 0.80 | normalized signal at concentration 0.000508053 [1, 7]: 1.11 | normalized signal at concentration 0.00152416 [1, 7]: 0.83 | normalized signal at concentration 0.00457247 [1, 7]: 0.98 | normalized signal at concentration 0.0137174 [1, 7]: 1.18 | normalized signal at concentration 0.0411523 [1, 7]: 1.02 | normalized signal at concentration 0.123457 [1, 7]: 1.25 | normalized signal at concentration 0.37037 [1, 7]: 0.98 | normalized signal at concentration 1.11111 [1, 7]: 1.04 | normalized signal at concentration 3.33333 [1, 7]: 0.97 | PbLuc_max_inhibition (%) [1, 8]: 22% | IC50 ([2]; sheet 2nd round): > 10 µM | Tox_max_inhibition (%) [2, 8]: -2.16%

C/C=C/c1ccc([C@H]2[C@@H](CO)N(CC3CCCCC3)[C@@H]2CNC(C)C)cc1 [BRD-K19633528-001-01-3]
PbLuc_max_inhibition (%) [1, 9]: 58% | normalized signal at 0.000508053 (first series) ([1]; concentration 0.000508053, first replicate series, fraction of control): 1 | normalized signal at 0.000508053 (second series) ([1]; concentration 0.000508053, second replicate series, fraction of control): 0.834 | normalized signal at 0.00152416 (first series) ([1]; concentration 0.00152416, first replicate series, fraction of control): 0.9222 | normalized signal at 0.00152416 (second series) ([1]; concentration 0.00152416, second replicate series, fraction of control): 0.7558 | normalized signal at 0.00457247 (first series) ([1]; concentration 0.00457247, first replicate series, fraction of control): 0.9507 | normalized signal at 0.00457247 (second series) ([1]; concentration 0.00457247, second replicate series, fraction of control): 1.046 | normalized signal at 0.0137174 (first series) ([1]; concentration 0.0137174, first replicate series, fraction of control): 0.9718 | normalized signal at 0.0137174 (second series) ([1]; concentration 0.0137174, second replicate series, fraction of control): 0.826 | normalized signal at 0.0411523 (first series) ([1]; concentration 0.0411523, first replicate series, fraction of control): 1.123 | normalized signal at 0.0411523 (second series) ([1]; concentration 0.0411523, second replicate series, fraction of control): 1.151 | normalized signal at 0.123457 (first series) ([1]; concentration 0.123457, first replicate series, fraction of control): 1.141 | normalized signal at 0.123457 (second series) ([1]; concentration 0.123457, second replicate series, fraction of control): 0.8556 | normalized signal at 0.37037 (first series) ([1]; concentration 0.37037, first replicate series, fraction of control): 1.177 | normalized signal at 0.37037 (second series) ([1]; concentration 0.37037, second replicate series, fraction of control): 1.086 | normalized signal at 1.11111 (first series) ([1]; concentration 1.11111, first replicate series, fraction of control): 1.183 | normalized signal at 1.11111 (second series) ([1]; concentration 1.11111, second replicate series, fraction of control): 0.9808 | normalized signal at 3.33333 (first series) ([1]; concentration 3.33333, first replicate series, fraction of control): 1.3301 | normalized signal at 3.33333 (second series) ([1]; concentration 3.33333, second replicate series, fraction of control): 0.9519 | normalized signal at 10 (first series) ([1]; concentration 10, first replicate series, fraction of control): 0.5856 | normalized signal at 10 (second series) ([1]; concentration 10, second replicate series, fraction of control): 0.4223 | IC50 ([1]; 2nd round, Broad DOS compounds, unit not printed (dose series head 10 to 0.000508053)): > 10 µM | Tox_max_inhibition (%) [2, 9]: 16% | IC50 ([2]; 2nd round, unit inferred): > 10 µM

C[C@H](CO)N1C[C@H](C)[C@@H](CN(C)C(=O)Nc2ccc(C(F)(F)F)cc2)Oc2c(NC(=O)c3ccc(-c4nccs4)cc3)cccc2C1=O [BRD-K70940716-001-01-0]
normalized signal at concentration 10 [1, 3]: 1.176 | normalized signal at concentration 0.000508053 [1, 4]: 0.7879 | normalized signal at concentration 0.00152416 [1, 4]: 0.8471 | normalized signal at concentration 0.00457247 [1, 4]: 0.871 | normalized signal at concentration 0.0137174 [1, 4]: 0.8913 | normalized signal at concentration 0.0411523 [1, 4]: 0.831 | normalized signal at concentration 0.123457 [1, 4]: 0.9514 | normalized signal at concentration 0.37037 [1, 4]: 0.8506 | normalized signal at concentration 1.11111 [1, 4]: 0.9296 | normalized signal at concentration 3.33333 [1, 4]: 1.136 | IC50 [1, 5]: > 10 µM | normalized signal at concentration 10 [1, 6]: 1.096 | normalized signal at concentration 0.000508053 [1, 7]: 1.058 | normalized signal at concentration 0.00152416 [1, 7]: 0.9924 | normalized signal at concentration 0.00457247 [1, 7]: 0.8277 | normalized signal at concentration 0.0137174 [1, 7]: 1.075 | normalized signal at concentration 0.0411523 [1, 7]: 1.139 | normalized signal at concentration 0.123457 [1, 7]: 0.9792 | normalized signal at concentration 0.37037 [1, 7]: 1.201 | normalized signal at concentration 1.11111 [1, 7]: 1.005 | normalized signal at concentration 3.33333 [1, 7]: 1.1649 | PbLuc_max_inhibition (%) [1, 8]: 21% | IC50 ([2]; sheet 2nd round): > 10 µM | Tox_max_inhibition (%) [2, 8]: 7%

Cc1noc(C)c1S(=O)(=O)N(C)C[C@@H]1OCCCC[C@@H](C)Oc2ccc(N(C)C)cc2C(=O)N([C@@H](C)CO)C[C@H]1C [BRD-K31367750-001-01-1]
normalized signal at concentration 0.000508053 [1, 10]: 1.082 | normalized signal at concentration 0.00152416 [1, 10]: 1.078 | normalized signal at concentration 0.00457247 [1, 10]: 1.115 | normalized signal at concentration 0.0137174 [1, 10]: 1.059 | normalized signal at concentration 0.0411523 [1, 10]: 1.054 | normalized signal at concentration 0.123457 [1, 10]: 1.1 | normalized signal at concentration 0.37037 [1, 10]: 1.064 | normalized signal at concentration 1.11111 [1, 10]: 0.9576 | normalized signal at concentration 3.33333 [1, 10]: 1.005 | normalized signal at concentration 10 [1, 10]: 1.057 | IC50 ([1]; sheet 2nd round, Pb-Luc exoerythrocytic stage, 10-point dose response, top concentration 10): > 10 µM | normalized signal at concentration 0.000508053 [1, 11]: 1.02 | normalized signal at concentration 0.00152416 [1, 11]: 0.9419 | normalized signal at concentration 0.00457247 [1, 11]: 0.9058 | normalized signal at concentration 0.0137174 [1, 11]: 0.8746 | normalized signal at concentration 0.0411523 [1, 11]: 0.9045 | normalized signal at concentration 0.123457 [1, 11]: 0.9742 | normalized signal at concentration 0.37037 [1, 11]: 0.91 | normalized signal at concentration 1.11111 [1, 11]: 0.8518 | normalized signal at concentration 3.33333 [1, 11]: 0.8811 | normalized signal at concentration 10 [1, 11]: 0.9567 | PbLuc_max_inhibition (%) [1, 8]: 15% | IC50 ([2]; sheet 2nd round): > 10 µM | Tox_max_inhibition (%) [2, 8]: 10%

Source: paper PMC4890880 (ACS infectious diseases, 2016)
